Data as given in patent publication US20090136968A1, “Novel in vitro methods for studying receptors recognizing volatile compounds” (Chemcom S. A., priority 2005, published 2009).

Key:
HEK 293T wt = assay: CCBSA microplate calcium flux on HEK 293T wild type cells (specificity control); assay type: cell-based
Method: (§1) A solution of BP including SA, OBP and/or olfactory mucus (see concentration in the text) was incubated in the presence of odorant in a sealed flask for 16 hours at 4° C. (FIG. 3A). Such incubated-BP solution was then used as tested complex on olfactory receptor-expressing cells. Prior to incubation with such complex, cells were incubated for 1 hour with 4 μM Fluo4-AM (Molecular Probe) in the presence of 1 mM probenecid, and then rinsed twice with Fluo4-AM free HBSS buffer. After injection of odorant-BP complex on OR expressing cells, calcium flux was followed by measuring fluorescence at 520 nm ([…]) on FDSS, a plate reader from Hamamatsu Photonics K.K. (Japan) at 25° C.
For this novel assay, mOR-I7 activation was assessed by octanal. A constant volume of olfactory mucus was incubated in the presence of increasing amount of octanal ranging from 0 to 16 μl of a solution of 1M octanal. […] Calcium flux was followed with Fluo4 on FDSS, a plate reader from Hamamatsu Photonics K.K. (Japan).
However this fraction 4 contained two major proteins, bOBP and BSA. […] Calcium-flux was followed on a plate reader (Hamamatsu Photonics K.K., Japan) with fluo4 as fluorescent dye (FIG. 6 A to F). […] Such phenomenon is usually observed in such fluorescence assay when increasing ligand concentrations are injected.

mOR-I7 = target: T1, mOR-I7 (Mus musculus, UniProt Q9QWU6); assay: Novel olfactory functional assay (CCBSA), microplate calcium flux (Fluo4, FDSS) on HEK 293T overexpressing mOR-I7; assay type: cell-based; details: for hit / potential ligand of mOR-I7 in screening of 30 odorants: carrier fraction 4 (bOBP and BSA) incubated with 16 μl of 1M odorant, ratio mOR-I7 on Wt, standardized to 1 mM ATP
T1 construct: expressed in transfected cells; host or cells: HEK 293T
T1 sequence (Q9QWU6 1-327): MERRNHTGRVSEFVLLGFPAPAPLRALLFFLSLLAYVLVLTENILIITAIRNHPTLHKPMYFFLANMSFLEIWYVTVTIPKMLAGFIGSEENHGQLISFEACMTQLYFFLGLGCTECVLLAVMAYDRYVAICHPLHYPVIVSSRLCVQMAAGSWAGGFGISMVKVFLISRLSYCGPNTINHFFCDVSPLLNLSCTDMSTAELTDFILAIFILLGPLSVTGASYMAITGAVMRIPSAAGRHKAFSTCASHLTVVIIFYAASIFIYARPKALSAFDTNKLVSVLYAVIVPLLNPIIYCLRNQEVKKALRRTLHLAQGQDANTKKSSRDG
Method: as §1
In an attempt to be closer to physiological process of olfaction and thereof to increase specificity and sensitivity of the cell-based assay described above, a novel olfactory functional assay was developed. Most of the time, mammalian smells volatile odorant molecules. However in the cell-based assay described above as in most cell-based assays, odorant molecules were injected into aqueous buffer. Such injection may lead to formation of micelles that can alter efficacy and specificity of ligands. Therefore a cell-based assay was developed focusing an a better solubilization of odorants. In summary, in a sealed flask, bovine olfactory mucus was incubated in the presence of an odorant (FIG. 3A). It was hereby tested if an odorant would be trapped and solubilized in that fluid. Thereafter, such solubilized odorant was injected onto cultured-cells overexpressing an olfactory receptor. Activation of this receptor could then be followed by conventional assay including fluorescent (FIGS. 3 B and C) and luminescent calcium assays.
For this novel assay, mOR-I7 activation was assessed by octanal. A constant volume of olfactory mucus was incubated in the presence of increasing amount of octanal ranging from 0 to 16 μl of a solution of 1M octanal. After 16 hours incubation at 4° C., bovine olfactory mucus was injected on HEK 293T overexpressing mOR-I7. Calcium flux was followed with Fluo4 on FDSS, a plate reader from Hamamatsu Photonics K.K. (Japan).
Capacity of fraction 4 to fulfil the role of odorant solubilizator was assessed in the newly proposed assay. Screening of 30 odorant molecules (FIG. 5A) was performed on HEK 293T wild type (FIG. 5C) or overexpressing mOR-I7 (FIG. 5B). Fraction 4 was incubated overnight at 4° C. […] These odorants led to at least one fold more activation of HEK 293T overexpressing mOR-I7 than the wild type counterpart. They can be classified into two groups. One group (FIG. 5 E (a) to (e)) gathers molecules that fit the olfactophore 1 depicted in FIG. 5 E (j). They are schematically made of 2 electronegative poles distanced by 6 carbons. They all contain a 6-8 carbon chain ended by an electronegative group as depicted by olfactophore 2 represented in FIG. 5 E (k).
However this fraction 4 contained two major proteins, bOBP and BSA. Thus the results of said Example could in this approach not rule out any implication of BSA into fraction 4 properties. Therefore the capacity of BSA to solubilize and thereof to enhance the efficacy of odorants in the novel cell based olfactory functional assay as described by the present invention has been tested. To be as close as possible to BSA concentration observed in fraction 4. BSA concentration was set up at 5×10^−6 M for the following experiments (marked by an arrow on FIG. 6 G). Fraction 4 and a solution of fatty acid-free BSA were incubated at 4° C. for 16 hours in the presence of increasing volume of 1M octanal. So-incubated solutions were then applied onto HEK 293T wt or overexpressing mOR-I7. Calcium-flux was followed on a plate reader (Hamamatsu Photonics K.K., Japan) with fluo4 as fluorescent dye (FIG. 6 A to F). […] Such phenomenon is usually observed in such fluorescence assay when increasing ligand concentrations are injected. […]

[1] = fraction 4 or BSA solution incubated with increasing volume of 1M octanal

SMILES: CCCCCCCC=O [octanal]
- cell response on wt cells (HEK 293T wt; bovine olfactory mucus incubated with octanal): no cell response
- fluorescence in HEK 293T wt (HEK 293T wt; fraction 4 or BSA solution (5×10^−6 M) incubated with 1M octanal): no fluorescence appeared
- hits / potential ligands of mOR-I7 through the 4 screenings (mOR-I7; BSA as carrier, calcium flux and cAMP screenings together): hits
- ligands of mOR-I7 in two independent calcium flux screenings of 30 odorants (mOR-I7; BSA as carrier, standardized to 100 μM ATP): consistent
- fluorescence intensity (calcium flux) (mOR-I7; bovine olfactory mucus incubated with 0 to 16 μl of 1M octanal, 16 hours 4° C.): proportional to the volume of odorant
- hit / potential ligand of mOR-I7 in screening of 30 odorants (mOR-I7): potential ligands of mOR-I7
- hit / potential ligand of mOR-I7 in screening of 30 odorants (mOR-I7; listed as 1-octanal): hits
- calcium flux in HEK 293T overexpressing mOR-I7 (mOR-I7; fraction 4 or BSA solution (5×10^−6 M) incubated with increasing volume of 1M octanal, kinetics over 300 seconds): calcium flux was detected
- dependence of fluorescence intensity on amount of odorant (mOR-I7; [1]): proportional to the amount of odorant
- time required to reach maximum fluorescence (mOR-I7; [1]): decreased when odorant volume increased
